# From ChEMBL document CHEMBL3390846, “Synthesis and biological activity of new pyridone diaryl ether non-nucleoside inhibitors of HIV-1 reverse transcriptase” (Medchemcomm, 2010)
# pIC50: −log10 of the molar value.
# Legend:
# [1] = system: Human immunodeficiency virus 1; test: Antiviral activity against wild type HIV-1 LAI infected in human MT4 cells assessed as protection against virus-induced cell death after 5 days by MTT assay; type: functional, organism-based; conditions: Human immunodeficiency virus 1, LAI, MT4, 120 h
# [2] = molecular target: Human immunodeficiency virus type 1 reverse transcriptase (Human immunodeficiency virus 1, UniProt Q72547); test: Inhibition of polymerase activity of wild type HIV-1 LAI reverse transcriptase
# [3] = molecular target: Human immunodeficiency virus type 1 reverse transcriptase (Human immunodeficiency virus 1, UniProt Q72547, Y181C); test: Inhibition of polymerase activity of NNRTI-resistant HIV-1 LAI reverse transcriptase Y181C mutant
# [4] = molecular target: Human immunodeficiency virus type 1 reverse transcriptase (Human immunodeficiency virus 1, UniProt Q72547, K103N); test: Inhibition of polymerase activity of NNRTI-resistant HIV-1 LAI reverse transcriptase K103N mutant
# [5] = system: Human immunodeficiency virus 1; test: Antiviral activity against wild type HIV-1 LAI infected in human MT4 cells assessed as inhibition of viral replication after 5 days by MTT assay; type: functional, organism-based; conditions: Human immunodeficiency virus 1, LAI, MT4, 120 h
# [6] = system: Human immunodeficiency virus 1; test: Antiviral activity against wild type HIV-1 LAI infected in human MT4 cells assessed as inhibition of viral replication after 5 days by MTT assay in presence of 40% human serum; type: functional, organism-based; conditions: Human immunodeficiency virus 1, LAI, MT4, 120 h
# [7] = system: Human immunodeficiency virus 1; test: Antiviral activity against NNRTI-resistant HIV-1 LAI harboring reverse transcriptase Y181C mutant infected in human MT4 cells assessed as inhibition of viral replication after 5 days by MTT assay; type: functional, organism-based; conditions: Human immunodeficiency virus 1, LAI, MT4, 120 h
# [8] = system: Human immunodeficiency virus 1; test: Antiviral activity against NNRTI-resistant HIV-1 LAI harboring reverse transcriptase K103N mutant infected in human MT4 cells assessed as inhibition of viral replication after 5 days by MTT assay; type: functional, organism-based; conditions: Human immunodeficiency virus 1, LAI, MT4, 120 h
# [9] = system: Human immunodeficiency virus 1; test: Potency index, ratio of efavirenz IC50 to compound IC50 for wild type HIV-1 LAI in presence of 40% human serum; type: functional
SMILES,pIC50 [1],pIC50 [2],pIC50 [3],pIC50 [4],pIC50 [5],pIC50 [6],pIC50 [7],pIC50 [8],Ratio IC50 [9]
CN(C)c1c(Oc2cc(Cl)cc(C#N)c2)cc(CC(=O)N2CCc3ccccc3C2)[nH]c1=O,7.46,6.66,,,,,,,
N#Cc1cc(Cl)cc(Oc2c(F)c(CCc3cccc(Cl)c3)[nH]c(=O)c2Br)c1,,7.77,8.10,8.10,,,,,
N#Cc1cc(Cl)cc(Oc2c(F)c(CCc3ccncc3)[nH]c(=O)c2Br)c1,,8.70,9.00,9.00,8.30,7.64,7.96,,
N#Cc1cc(Cl)cc(Oc2c(Cc3ccccc3)c[nH]c(=O)c2Br)c1,,7.47,7.39,7.15,,,,,
N#Cc1cc(Cl)cc(Oc2c(CCOc3cccnc3)c[nH]c(=O)c2Br)c1,,7.96,8.10,7.80,,,,,
N#Cc1cc(Cl)cc(Oc2c(CCOc3ccncc3)c[nH]c(=O)c2Br)c1,,8.00,8.10,7.85,,,,,
N#Cc1cc(Cl)cc(Oc2c(COCc3ccncc3)c[nH]c(=O)c2Br)c1,,7.68,7.96,7.89,8.15,8.00,7.72,7.89,
Cc1[nH]c(=O)c(Br)c(Oc2cc(Cl)cc(C#N)c2)c1Cc1ccccc1,,8.00,8.10,8.15,8.22,7.49,7.54,7.80,
Cc1[nH]c(=O)c(Cl)c(Oc2cc(Cl)cc(C#N)c2)c1CCOc1ccccc1,,8.22,8.22,8.30,8.40,7.89,7.96,7.62,
Cc1[nH]c(=O)c(Cl)c(Oc2cc(Cl)cc(C#N)c2)c1CCCc1ccncc1,,8.40,8.52,8.70,8.70,8.30,8.22,,3
N#Cc1cc(Cl)cc(Oc2c(F)c(CC(=O)N3CCc4ccccc4C3)[nH]c(=O)c2Br)c1,7.30,7.92,,,,,,,
N#Cc1cc(Cl)cc(Oc2cc(CC(=O)N3CCc4ccccc4C3)[nH]c(=O)c2Cl)c1,7.46,7.52,,,,,,,
N#Cc1cc(Cl)cc(Oc2cc(CCc3ccccc3)[nH]c(=O)c2Cl)c1,,8.10,,,,,,,
N#Cc1cc(Cl)cc(Oc2cc(CCc3nc4ccccc4o3)[nH]c(=O)c2Cl)c1,,8.22,8.40,7.80,,,,,
N#Cc1cc(Cl)cc(Oc2cc(CCc3ccccn3)[nH]c(=O)c2Cl)c1,,7.68,7.48,7.11,,,,,
N#Cc1cc(Cl)cc(Oc2cc(CCc3cccnc3)[nH]c(=O)c2Cl)c1,,7.66,7.66,7.80,,,,,
N#Cc1cc(Cl)cc(Oc2cc(CCc3ccncc3)[nH]c(=O)c2Cl)c1,,7.72,7.68,7.85,,,,,
N#Cc1cc(Cl)cc(Oc2cc(CCc3cccc(Cl)c3)[nH]c(=O)c2Cl)c1,,7.92,8.15,8.22,,,,,
N#Cc1cc(Cl)cc(Oc2c(F)c(CCc3ccccc3)[nH]c(=O)c2Cl)c1,,8.15,,,,,,,
O=C1Nc2ccc(Cl)cc2[C@@](C#CC2CC2)(C(F)(F)F)O1 [EFAVIRENZ],,,,,,,8.52,7.19,
